The values below come from ChEMBL document CHEMBL5108078, “Design and Synthesis of Phenyl Sulfide-Based Cationic Amphiphiles as Membrane-Targeting Antimicrobial Agents against Gram-Positive Pathogens” (J Med Chem, 2022).

Each structure is given as a SMILES string. Values after ≈ are worked out from the molar mass of the structure shown. Active and inactive are the calls of the source. No cut-off for these calls is given here. A value given as a limit tells only on which side of the number the result lay.

Series [1] has as its system Staphylococcus aureus. The experiment in a line: Antibacterial activity against Staphylococcus aureus ATCC 29213 assessed as inhibition of bacterial growth incubated for 24 hrs by microbroth dilution method. The class given is functional. (Dilution methods test growth across graded concentrations, often in twofold steps.)
The subject of series [2] is Staphylococcus aureus. The experiment in a line: Antibacterial activity against methicillin resistant Staphylococcus aureus N315 assessed as inhibition of bacterial growth incubated for 24 hrs by microbroth dilution method. It is filed as functional.
Series [3] relates to Staphylococcus aureus. In words: Antibacterial activity against methicillin resistant Staphylococcus aureus NCTC10442 assessed as inhibition of bacterial growth incubated for 24 hrs by microbroth dilution method. The class given is functional.
For series [4], the system named is Staphylococcus aureus. The experiment in a line: Antibacterial activity against Staphylococcus aureus ATCC 29213 infected in mouse corneal infection model assessed as log reduction in bacterial load at 50 mg/ml pre-infected with bacteria for 24 hrs followed by compound administered four times a day for 3 consecutive weeks. It is filed as functional. The settings on record: time 3 weeks.

Series [5] in a line: Hemolytic activity in rabbit RBC incubated for 1 hr by microplate reader analysis. It is filed as toxicity, cell-based, Oryctolagus cuniculus, Erythrocyte. The settings on record: rabbit red blood cells (erythrocytes).
The test system of a further series is Bacillus subtilis. In words: Antibacterial activity against Bacillus subtilis CMCC63501 assessed as inhibition of bacterial growth incubated for 24 hrs by microbroth dilution method. The class given is functional.
Series [6] has as its system Staphylococcus epidermidis. The experiment in a line: Antibacterial activity against Staphylococcus epidermidis ATCC 12228 assessed as inhibition of bacterial growth incubated for 24 hrs by microbroth dilution method. The class given is functional.
Series [7] relates to Staphylococcus epidermidis. In words: Antibacterial activity against Staphylococcus epidermidis CMCC26069 assessed as inhibition of bacterial growth incubated for 24 hrs by microbroth dilution method. It is filed as functional.
Another series has as its system Enterococcus faecalis. In words: Antibacterial activity against Enterococcus faecalis ATCC 29212 assessed as inhibition of bacterial growth incubated for 24 hrs by microbroth dilution method. The class given is functional.
Series [8] relates to Staphylococcus aureus. The experiment in a line: Antibacterial activity against Staphylococcus aureus ATCC 29213 assessed as inhibition of bacterial growth in presence of 20 umol/L Fe2+ (reference value: […] microg/ml). The class given is functional.
In series [9] the test system is Staphylococcus aureus. In words: Bactericidal activity against Staphylococcus aureus ATCC 29213 at 4 to 8 times MIC after 0.5 hrs by time kill assay. It is filed as functional.
In series [10] the test system is Staphylococcus aureus. The experiment in a line: Bactericidal activity against Staphylococcus aureus ATCC 29213 at 4 to 8 times MIC after 24 hrs by time kill assay. The class given is functional, organism-based.
Series [11] concerns Staphylococcus aureus. The experiment in a line: Antibacterial activity against Staphylococcus aureus ATCC 29213 assessed as inhibition of bacterial growth in presence of 140 mmol/L Na+ (reference value: […] microg/ml). It is filed as functional.
The test system of series [12] is Staphylococcus aureus. The experiment in a line: Antibacterial activity against Staphylococcus aureus ATCC 29213 assessed as inhibition of bacterial growth in presence of 4.5 mmol/L K+ (reference value: […] microg/ml). The class given is functional.
Series [13] relates to Staphylococcus aureus. The experiment in a line: Antibacterial activity against Staphylococcus aureus ATCC 29213 assessed as inhibition of bacterial growth in presence of 2.50 mmol/L Ca2+ (reference value: […] microg/ml). It is filed as functional.
Series [14] deals with Staphylococcus aureus. The experiment in a line: Antibacterial activity against Staphylococcus aureus ATCC 29213 assessed as inhibition of bacterial growth in presence of 1.00 mmol/L Mg2+ (reference value: […] microg/ml). It is filed as functional.
Series [15] concerns Staphylococcus aureus. The experiment in a line: Antibacterial activity against Staphylococcus aureus ATCC 29213 assessed as inhibition of bacterial growth in presence of 19 umol/L Zn2+ (reference value: […] microg/ml). The class given is functional.
For series [16], the system named is Staphylococcus aureus. In words: Antibacterial activity against Staphylococcus aureus ATCC 29213 assessed as inhibition of bacterial growth in presence of 20 umol/L […] (reference value: […] microg/ml). The class given is functional.
For series [17], the system named is Staphylococcus aureus. The experiment in a line: Antibacterial activity against methicillin resistant Staphylococcus aureus N315 assessed as inhibition of bacterial growth in presence of 140 mmol/L Na+ (reference value: […] microg/ml). It is filed as functional.
The test system of series [18] is Staphylococcus aureus. In words: Antibacterial activity against methicillin resistant Staphylococcus aureus N315 assessed as inhibition of bacterial growth in presence of 4.5 mmol/L K+ (reference value: […] microg/ml). It is filed as functional.
Series [19] has as its system Staphylococcus aureus. The experiment in a line: Antibacterial activity against methicillin resistant Staphylococcus aureus N315 assessed as inhibition of bacterial growth in presence of 2.50 mmol/L Ca2+ (reference value: […] microg/ml). The class given is functional.
Series [20] deals with Staphylococcus aureus. In words: Antibacterial activity against methicillin resistant Staphylococcus aureus N315 assessed as inhibition of bacterial growth in presence of 1.00 mmol/L Mg2+ (reference value: […] microg/ml). It is filed as functional.
The subject of series [21] is Staphylococcus aureus. In words: Antibacterial activity against methicillin resistant Staphylococcus aureus N315 assessed as inhibition of bacterial growth in presence of 19 umol/L Zn2+ (reference value: […] microg/ml). The class given is functional.
The test system of series [22] is Staphylococcus aureus. The experiment in a line: Antibacterial activity against methicillin resistant Staphylococcus aureus N315 assessed as inhibition of bacterial growth in presence of 20 umol/L Fe2+ (reference value: […] microg/ml). It is filed as functional.
Series [23] relates to Staphylococcus aureus. The experiment in a line: Antibacterial activity against methicillin resistant Staphylococcus aureus N315 assessed as inhibition of bacterial growth in presence of 20 umol/L […] (reference value: […] microg/ml). It is filed as functional.
Series [24] relates to Staphylococcus aureus. The experiment in a line: Antibacterial activity against methicillin resistant Staphylococcus aureus NCTC10442 assessed as inhibition of bacterial growth in presence of 140 mmol/L Na+ (reference value: […] microg/ml). The class given is functional.
Series [25] has as its system Staphylococcus aureus. In words: Antibacterial activity against methicillin resistant Staphylococcus aureus NCTC10442 assessed as inhibition of bacterial growth in presence of 4.5 mmol/L K+ (reference value: […] microg/ml). The class given is functional.
The test system of series [26] is Staphylococcus aureus. The experiment in a line: Antibacterial activity against methicillin resistant Staphylococcus aureus NCTC10442 assessed as inhibition of bacterial growth in presence of 2.50 mmol/L Ca2+ (reference value: […] microg/ml). The class given is functional.
The test system of series [27] is Staphylococcus aureus. The experiment in a line: Antibacterial activity against methicillin resistant Staphylococcus aureus NCTC10442 assessed as inhibition of bacterial growth in presence of 1.00 mmol/L Mg2+ (reference value: […] microg/ml). It is filed as functional.
Series [28] has as its system Staphylococcus aureus. The experiment in a line: Antibacterial activity against methicillin resistant Staphylococcus aureus NCTC10442 assessed as inhibition of bacterial growth in presence of 19 umol/L Zn2+ (reference value: […] microg/ml). The class given is functional.
For series [29], the system named is Staphylococcus aureus. The experiment in a line: Antibacterial activity against methicillin resistant Staphylococcus aureus NCTC10442 assessed as inhibition of bacterial growth in presence of 20 umol/L Fe2+ (reference value: […] microg/ml). It is filed as functional.
The subject of series [30] is Staphylococcus aureus. In words: Antibacterial activity against methicillin resistant Staphylococcus aureus NCTC10442 assessed as inhibition of bacterial growth in presence of 20 umol/L […] (reference value: […] microg/ml). The class given is functional.
Series [31] relates to Cell membrane. The experiment in a line: Induction of cell membrane disruption in Staphylococcus aureus ATCC 29213 assessed as increase in fluorescence intensity measured for 100 mins by SYTOX green assay. The class given is subcellular. As to conditions: DDE = dose-dependent effect.
The test system of series [32] is Cell membrane. In words: Induction of cell membrane disruption in methicillin resistant Staphylococcus aureus NCTC10442 assessed as increase in fluorescence intensity measured for 100 mins by SYTOX green assay. As to conditions: DDE = dose-dependent effect. The class given is subcellular.
The nature of series [33]: Displacement of BODIPY-TR-cadaverine from Lipoteichoic acid at 4 times MIC preincubated with LTA for 15 mins followed by compound addition and measured for 30 mins by fluorescence based microplate reader assay. As to conditions: time 45.0 min.
Series [34] is described as follows: Displacement of BODIPY-TR-cadaverine from Lipoteichoic acid preincubated with LTA for 15 mins followed by compound addition and measured for 30 mins by fluorescence based microplate reader assay. As to conditions: time 45.0 min; DDE = dose-dependent effect.
The test system of series [35] is Cell membrane. In words: Disruption of membrane integrity in Staphylococcus aureus ATCC 29213 assessed as cell membrane damage at 8 times MIC incubated for 2 hrs by Live/dead staining based laser confocal microscopy analysis. The class given is subcellular.
The subject of series [36] is Staphylococcus aureus. In words: Induction of morphological changes in Staphylococcus aureus ATCC 29213 assessed as perforation at 8 times MIC incubated for 2 hrs by TEM analysis. The class given is functional, organism-based.
The nature of series [37]: Cytotoxicity against mouse NCTC clone 929 cells assessed as cell viability at 50 ug/ml after 24 hrs by CCK8 assay. The class given is toxicity, cell-based. The settings on record: at 50 µg/mL, read-out: Activity. For orientation: Formazan colour is commonly taken as a measure of viable cells.
Series [38] can be described thus: Cytotoxicity against human HEK293 cells assessed as cell viability at 50 ug/ml after 24 hrs by CCK8 assay. The class given is toxicity, cell-based. As to conditions: at 50 µg/mL, read-out: Activity.
The subject of series [39] is Staphylococcus aureus. In words: Antibacterial activity against Staphylococcus aureus ATCC 29213 infected in mouse corneal infection model assessed as log reduction in bacterial load at 5 mg/ml pre-infected with bacteria for 24 hrs followed by compound administered four times a day for 3 consecutive weeks. As to conditions: time 3 weeks. The class given is functional.

The subject of series [40] is Staphylococcus aureus. The experiment in a line: Antibacterial activity against Staphylococcus aureus ATCC 15981 assessed as inhibition of bacterial growth incubated for 24 hrs by microbroth dilution method. The class given is functional.

A word on the MIC: it is the lowest concentration found to suppress growth. Consider `CN[C@H](CC(C)C)C(=O)N[C@H]1C(=O)N[C@@H](CC(N)=O)C(=O)N[C@H]2C(=O)N[C@H]3C(=O)N[C@H](C(=O)N[C@H](C(=O)O)c4cc(O)cc(O)c4-c4cc3ccc4O)[C@H](O)c3ccc(c(Cl)c3)Oc3cc2cc(c3O[C@@H]2O[C@H](CO)[C@@H](O)[C@H](O)[C@H]2O[C@H]2C[C@](C)(N)[C@H](O)[C@H](C)O2)Oc2ccc(cc2Cl)[C@H]1O` [VANCOMYCIN], for which the minimum inhibitory concentration (MIC) with Staphylococcus aureus [1] turned out to be 0.78 µg/mL (≈ 0.538 µM); in the series with Staphylococcus aureus [2], 1.56 µg/mL (≈ 1.08 µM); in the series with Staphylococcus aureus [3], 0.78 µg/mL (≈ 0.538 µM). The “log(activity)” value with Staphylococcus aureus [4] was 5.21.
As usually defined, the HC50 is the concentration that lyses half of the red blood cells. On to `COC(=O)[C@H](CCCNC(=N)N)NC(=O)COc1ccc(C(C)(C)CC(C)(C)C)cc1Sc1cc(C(C)(C)CC(C)(C)C)ccc1OCC(=O)N[C@@H](CCCNC(=N)N)C(=O)OC`, for which the HC50 at 1 h in [5] is > 200 µg/mL. Besides, the MIC with Staphylococcus aureus [1] is 1.56 µg/mL (≈ 1.73 µM); in the series with Staphylococcus aureus [2], 0.78 µg/mL (≈ 0.867 µM); in the series on Staphylococcus aureus [3], 0.78 µg/mL (≈ 0.867 µM); in the series on Bacillus subtilis, 0.78 µg/mL (≈ 0.867 µM); in series [6], 0.39 µg/mL (≈ 0.434 µM); in series [7] it was 0.39 µg/mL (≈ 0.434 µM). In addition, the MIC in the series with Enterococcus faecalis amounted to 0.78 µg/mL (≈ 0.867 µM); in the series on Staphylococcus aureus [8], 0.78 µg/mL; in the series with Staphylococcus aureus [11], 1.56 µg/mL; in the series on Staphylococcus aureus [12], 1.56 µg/mL; in the series with Staphylococcus aureus [13], 1.56 µg/mL; with Staphylococcus aureus [14] it was 1.56 µg/mL. In addition, the MIC worked out at 0.78 µg/mL with Staphylococcus aureus [15]; 0.78 µg/mL in the series on Staphylococcus aureus [16]; 0.39 µg/mL in the series with Staphylococcus aureus [17]; 0.78 µg/mL in the series with Staphylococcus aureus [18]; 0.78 µg/mL with Staphylococcus aureus [19]; 0.78 µg/mL in the series on Staphylococcus aureus [20]. Moreover, the MIC in the series with Staphylococcus aureus [21], with Staphylococcus aureus [22], with Staphylococcus aureus [23], in the series on Staphylococcus aureus [24], in the series on Staphylococcus aureus [25] and in the series with Staphylococcus aureus [26] was 0.78 µg/mL each time. Also, the minimum inhibitory concentration (MIC) with Staphylococcus aureus [27] was 0.78 µg/mL; with Staphylococcus aureus [28], 0.78 µg/mL; with Staphylococcus aureus [29], 0.78 µg/mL; in the series on Staphylococcus aureus [30], 0.78 µg/mL; in the series on Staphylococcus aureus [40], 0.78 µg/mL (≈ 0.867 µM). Besides, the Activity in the series with Staphylococcus aureus [9] was 99.99%; with Cell membrane [31] it was “Dde”; with Cell membrane [32], “Dde”; in series [33], 62.2%; in series [34], “Dde”. For the same molecule, the result with Staphylococcus aureus [10], with Cell membrane [35] and in the series on Staphylococcus aureus [36] was Active. Besides, the viability at 24 h, 50 ug/ml in series [37] stood at 53.1%; in series [38] it was 55.9%. For the same molecule, the “log(activity)” value with Staphylococcus aureus [39] stood at 6.81.
